According to patent US9527850B2, “Benzyl piperidine compounds as lysophosphatidic acid (LPA) receptor antagonist” (Merck Patent GmbH, priority 2011, dated 2016):

Each molecule was assayed against T1, LPA2 receptor (LPA2R) (Homo sapiens, UniProt Q9HBW0) (assay: LPA2R-Calciumflux assay (intracellular calcium mobilisation, FLIPR)). Settings: U2OS cells recombinant expressing LPA2R; inhibition of LPA-induced Ca-flux; 10 concentrations 30 uM to 1 nM, 1% DMSO.
T1 construct: expressed in transfected cells; host or cells: U2OS
T1 sequence (Q9HBW0 whole entry): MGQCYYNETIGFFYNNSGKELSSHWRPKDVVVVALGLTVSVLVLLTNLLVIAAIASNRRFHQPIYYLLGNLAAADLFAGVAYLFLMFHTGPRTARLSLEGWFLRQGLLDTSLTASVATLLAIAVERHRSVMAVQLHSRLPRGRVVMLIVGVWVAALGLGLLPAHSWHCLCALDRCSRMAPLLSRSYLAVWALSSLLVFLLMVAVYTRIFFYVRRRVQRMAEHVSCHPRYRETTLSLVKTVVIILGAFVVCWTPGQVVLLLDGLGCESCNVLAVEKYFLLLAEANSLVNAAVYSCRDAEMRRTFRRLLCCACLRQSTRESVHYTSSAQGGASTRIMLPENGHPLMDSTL
Assay type: cell-based
Source text: The assay detects intra cellular calcium which is generated by cells upon activation of the LPA2 receptor by its ligand LPA. This transient calcium mobilization can be monitored using a commercial calcium detection kit (e.g. from Molecular Devices). The main component of such a kit is a dye, which becomes fluorescent when calcium is present—a transient fluorescence signal after laddition of a ligand to a test well are the result. Readers like the FLIPR (Molecular Devices) can be used to monitor such transient “Ca-flux” signals.
The signals are calculated according to peak maximum minus base line.
The assay is performed in microplates (384 wells per plate).
LPA2R-Calciumflux Assay Protocol
The assay is run according to the following procedure: • 50 uL seed cells (10000 cells/well in DMEM buffer) • Incubate 24 h at 37° C., 10% CO2 • aspirate medium • 50 uL add calcium dye 1×HBSS/HEPES buffer • incubate 1 h at 37° C. (“loading”) • equilibrate 10 min at RT • 5 uL add compounds in HEPES buffer • shake 10 sec. at 1000 rpm • incubate 15 min at RT • 20 uL add LPA (in the FLIPR Tetra) in Krebs-buffer/BSA & measurement
The cells are seeded in DMEM buffer (DMEM, 10% FCS, 10 mM HEPES, 1% Pen/Strep).
Dye loading is done in HBSS/HEPES buffer (100 mL 10×HBSS+20 mL 1M HEPES+880 mL water, pH 7.4)
The LPA is added in Krebs/BSA buffer (120 mM NaCl, 5 mM KCl, 0.62 mM MgSO4, 1.8 mM CaCl2, 10 mM HEPES, 6 mM D(+)-Glucose, 0.2% BSA, pH 7.4).
The compounds are pre-diluted in HEPES buffer (20 mM, pH 7.4), whereby the final DMSO content in the assay is kept at 1%. The compounds are pre-diluted in order to generate dose response series on the microplates. The dose response series consist of 10 concentrations for each compound from 30 uM final to 1 nM final. From all compound wells the resulting signals are referred to control wells (located on each plate besides the compound wells) in terms of % activity.
From these % activity values—along with the corresponding compound concentrations—IC50 values are fitted for each compound using standard fitting programs such as Graphpad Prism. Here the method “log(inhibitor) vs. response—Variable slope” is used.

IC50	SMILES
< 500 nM	Cc1ccc(CN2CCCCC2c2nc3ccc(Br)cc3[nH]2)cc1C (stereo not drawn) [compound 96, 6-Bromo-2-[1-(3,4-dimethyl-benzyl)-piperidin-2-yl]-1H-benzo-imidazole]
500 to 5000 nM	Cc1cc(Cl)cc2nc(C3CCCCN3Cc3ccc4c(c3)C(C)(C)CCC4(C)C)[nH]c12 (stereo not drawn) [compound 97, 5-Chloro-7-methyl-2-[1-(5,5,8,8-tetramethyl-5,6,7,8-tetrahydro-naphthalen-2-ylmethyl)-piperidin-2-yl]-1H-benzo-imidazole]
500 to 5000 nM	Cc1cc(Cl)cc2nc(C3CCCCN3Cc3cccc(C(F)(F)F)c3)[nH]c12 (stereo not drawn) [compound 98]
500 to 5000 nM	Cc1cccc(CN2CCCCC2c2nc3cc(Cl)cc(C)c3[nH]2)c1 (stereo not drawn) [compound 99, 5-Chloro-7-methyl-2-[1-(3-methyl-benzyl)-piperidin-2-yl]-1H-benzo-imidazole]
< 500 nM	Cc1ccc(CN2CCCCC2c2nc3cccc(C)c3[nH]2)cc1C (stereo not drawn) [compound 100, 2-[1-(3,4-Dimethyl-benzyl)-piperidin-2-yl]-7-methyl-1H-benzo-imidazole]
500 to 5000 nM	CC(c1ccccc1)N1CCCCC1c1nc2cc(F)ccc2[nH]1 (stereo not drawn) [compound 101, 5-Fluoro-2-[1-(1-phenyl-ethyl)-piperidin-2-yl]-1H-benzo-imidazole]
500 to 5000 nM	Fc1ccc2[nH]c(C3CCCCN3Cc3ccccc3)nc2c1 (stereo not drawn) [compound 102, 2-(1-Benzyl-piperidin-2-yl)-5-fluoro-1H-benzo-imidazole]
500 to 5000 nM	Cc1ccc(CN2CCCCC2c2nc3cc(F)ccc3n2C)cc1C (stereo not drawn) [compound 103, 2-[1-(3,4-Dimethyl-benzyl)-piperidin-2-yl]-5-fluoro-1-methyl-1H-benzo-imidazole]
500 to 5000 nM	Fc1ccc2[nH]c(C3CCCCN3CCc3ccccc3)nc2c1 (stereo not drawn) [compound 104, 5-Fluoro-2-(1-phenethyl-piperidin-2-yl)-1H-benzo-imidazole]
500 to 5000 nM	Cc1ccc(CN2CCCCC2c2nc3cc(Cl)cc(C)c3[nH]2)cc1C (stereo not drawn) [compound 105]
< 500 nM	Cc1cccc(CN2CCCCC2c2nc3cc(C)c(Cl)cc3[nH]2)c1 (stereo not drawn) [compound 106, 6-Chloro-5-methyl-2-[1-(3-methyl-benzyl)-piperidin-2-yl]-1H-benzo-imidazole]
< 500 nM	COc1ccc(CN2CCCCC2c2cc3cc(F)ccc3[nH]2)cc1 (stereo not drawn) [compound 107, 5-Fluoro-2-[1-(4-methoxy-benzyl)-piperidin-2-yl]-1H-indole]
< 500 nM	Cc1ccc(CN2CCCCC2c2cc3cc(F)ccc3[nH]2)cc1 (stereo not drawn) [compound 108, 5-Fluoro2-[1-(4-methyl-benzyl)-piperidin-2-yl]-1H-indole]
< 500 nM	COc1cccc(CN2CCCCC2c2cc3cc(F)ccc3[nH]2)c1 (stereo not drawn) [compound 109, 5-Fluoro-2-[1-(3-methoxy-benzyl)-piperidin-2-yl]-1H-indole]
< 500 nM	Cn1nc(CN2CCCCC2c2cc3cc(F)ccc3[nH]2)c2ccccc21 (stereo not drawn) [compound 110, 3-[2-(5-Fluoro-1H-indol-2-yl)-piperidin-1-ylmethyl]-1-methyl-1H-indazole]
500 to 5000 nM	Fc1ccc(CCN2CCCCC2c2cc3cc(F)ccc3[nH]2)cc1 (stereo not drawn) [compound 111, 5-Fluoro-2-{1-[2-(4-fluoro-phenyl)-ethyl]-piperidin-2-yl}-1H-indole]
< 500 nM	Fc1ccc(CN2CCCCC2c2cc3cc(F)ccc3[nH]2)c(F)c1 (stereo not drawn) [compound 112, 2-[1-(2,4-Difluoro-benzyl)-piperidin-2-yl]-5-fluoro-1H-indole]
500 to 5000 nM	Cc1cc2nc(C3CCCCN3Cc3ccc4c(c3)C(C)(C)CCC4(C)C)[nH]c2cc1Cl (stereo not drawn) [compound 113, 6-Chloro-5-methyl-2-[1-(5,5,8,8-tetramethyl-5,6,7,8-tetrahydro-naphthalen-2-ylmethyl)-piperidin-2-yl]-1H-benzo-imidazole]

IC50	SMILES
< 500 nM	Cc1ccc(CN2CCCCC2c2nc3cc(C)c(Cl)cc3[nH]2)cc1C (stereo not drawn) [compound 114, 6-Chloro-2-[1-(3,4-dimethyl-benzyl)-piperidin-2-yl]-5-methyl-1H-benzo-imidazole]
500 to 5000 nM	NS(=O)(=O)c1ccc2nc(C3CCCCN3Cc3cccc(C(F)(F)F)c3)[nH]c2c1 (stereo not drawn) [compound 115]
< 500 nM	Cc1ccc(CN2CCCCC2c2nc3ccc(S(N)(=O)=O)cc3[nH]2)cc1C (stereo not drawn) [compound 116, 2-[1-(3,4-Dimethyl-benzyl)-piperidin-2-yl]-3H-benzo-imidazole-5-sulfonic acid amide]
500 to 5000 nM	Cc1ccc(CN2CCCCC2c2nc3ccc(S(N)(=O)=O)cc3[nH]2)cc1C(F)(F)F (stereo not drawn) [compound 117]
500 to 5000 nM	CC1(C)CCC(C)(C)c2cc(CN3CCCCC3c3nc4ccc(S(N)(=O)=O)cc4[nH]3)ccc21 (stereo not drawn) [compound 118, 2-[1-(5,5,8,8-Tetramethyl-5,6,7,8-tetrahydro-naphthalen-2-ylmethyl)-piperidin-2-yl]-3H-benzo-imidazole-5-sulfonic acid amide]
< 500 nM	Cc1ccc(CN2CCCC[C@@H]2c2nc3cc(F)ccc3[nH]2)cc1C [compound 119, 2-[(R)-1-(3,4-Dimethyl-benzyl)-piperidin-2-yl]-5-fluoro-1H-benzo-imidazole]
< 500 nM	Fc1ccc(CN2CCCCC2c2nc3cc(Cl)cnc3[nH]2)cc1 (stereo not drawn) [compound 120, 6-Chloro-2-[1-(4-fluoro-benzyl)-piperidin-2-yl]-3H-imidazo[4,5-b]pyridine]
< 500 nM	CCc1nc(CN2CCCCC2c2nc3cc(F)ccc3[nH]2)cs1 (stereo not drawn) [compound 121, 2-[1-(2-Ethyl-thiazol-4-ylmethyl)-piperidin-2-yl]-5-fluoro-1H-benzo-imidazole]
500 to 5000 nM	Fc1ccc2[nH]c(C3CCCCN3Cc3csc(Cl)n3)nc2c1 (stereo not drawn) [compound 122, 2-[1-(2-Chloro-thiazol-4-ylmethyl)-piperidin-2-yl]-5-fluoro-1H-benzo-imidazole]
500 to 5000 nM	Cc1nc(CN2CCCCC2c2nc3cc(F)ccc3[nH]2)cs1 (stereo not drawn) [compound 123]
500 to 5000 nM	Fc1ccc(CN2CCCC[C@H]2c2cc3ccccc3[nH]2)cc1 [compound 124, 2-[(S)-1-(4-Fluoro-benzyl)-piperidin-2-yl]-1H-indole]
< 500 nM	Fc1ccc(CN2CCCC[C@@H]2c2cc3ccccc3[nH]2)cc1 [compound 125, 2-[(R)-1-(4-Fluoro-benzyl)-piperidin-2-yl]-1H-indole]
< 500 nM	Cc1cc2nc(C3CCCCN3Cc3cccc(C(F)(F)F)c3)[nH]c2cc1Cl (stereo not drawn) [compound 126]
500 to 5000 nM	Cc1cc2nc(C3CCCCN3Cc3ccc(C)c(C(F)(F)F)c3)[nH]c2cc1Cl (stereo not drawn) [compound 127]
< 500 nM	Cc1ccc(CN2CCCCC2c2nc3cc(Cl)cnc3[nH]2)cc1C (stereo not drawn) [compound 128, 6-Chloro-2-[1-(3,4-dimethyl-benzyl)-piperidin-2-yl]-3H-imidazo[4,5-b]pyridine]
< 500 nM	Cc1cccc(CN2CCCCC2c2nc3ccc(S(N)(=O)=O)cc3[nH]2)c1 (stereo not drawn) [compound 129, 2-[1-(3-Methyl-benzyl)-piperidin-2-yl]-3H-benzo-imidazole-5-sulfonic acid amide]
< 500 nM	Fc1ccc(CN2CCCCC2c2nc3cccnc3[nH]2)cc1 (stereo not drawn) [compound 130, 2-[1-(4-Fluoro-benzyl)-piperidin-2-yl]-3H-imidazo[4,5-b]pyridine]
500 to 5000 nM	Fc1ccc(CN2CCCC[C@H]2c2nc3cc(F)ccc3[nH]2)cc1 [compound 131, 5-Fluoro-2-[(S)-1-(4-fluoro-benzyl)-piperidin-2-yl]-1H-benzo-imidazole]
